Source: US20070122810A1 (priority 2003, published 2007)
Read-outs that look alike come from different tables or passages of the source.

System: tumor cell suspension (glioma samples)
[1] = FIG. 5, example A, tumor located near normal brain tissue in phylogenetic tree, 8 hours incubation, about 1/10 of highest blood concentration
[2] = FIG. 5, example B, tumor located near normal brain tissue in phylogenetic tree, 8 hours incubation, about 1/10 of highest blood concentration

Procedure: These drugs were classified into five following categories by pharmacological mechanism. • Alkylating agents: • 4-hydroperoxy-cyclophosphamide (CPM)(1 μg/ml), 4-hydroperoxy-ifosfamide (IFOS) (I μg/ml), melphalan (MPL) (0.5 μg/ml), carboquone (CQ) (0.1 μg/ml), nimustine (ACNU) (2 μg/ml), ranimustine (MCNU) (2 μg/ml), cisplatinum (CDDP) (0.5 μg/ml) and carboplatin (JM-8) (4 μg/ml) • Antimetabolites: • Methotrexate (MTX) (3 μg/ml), 5-fluoro uracil (5-FU) (10 μg/ml), thioinosine (6-MRP) (3μg/ml) and cytosine arabinoside (CA) (4 μg/ml) • Antibiotics: • Mitomycin C (MMC) (0.2 μg/ml), bleomycin (BLM) (1 μg/ml), peplomycin (PEP) (0.5 μg/ml), chromomycin A3 (TM) (0.01 μg/ml) and neocarsinostatin (NCS) (0.15 μg/ml) • Topoisomerase inhibitors: • Actinomycin D (ACD) (0.01 μg/ml), aclarubicin (ACR) (0.6 μg/ml), adriamycin (ADM) (0.3 μg/ml), daunomycin (DM) (0.6 μg/ml), pirarubicin (THP) (0.3 μg/ml), epirubicin (4′-EPI) (0.4 μg/ml), mitoxantrone (MIT) (0.06 μg/ml), etoposide (VP-16) (3 μg/ml) and camptothecine (CPT-11) (3 μg/ml) • Microtubule Inhibitors: • Vincristine (VCR) (0.1 μg/ml), vinblastin (VLB) (0.1 μg/ml), vindesin (VDS) (0.1 μg/ml) and paclitaxel (TAX) (0.6 μg/ml)
The in vitro concentrations of these drugs were set to about 1/10 of the highest blood concentration when administered at a dose clinically recommended, and differences in the reaction by dose were evaluated for 10 selected drugs (CPM, ACNU, CDDP, PEP, ADM, VP-16, CA, TAX, VCR). The cultured samples of these were mixed in a phosphate buffered saline (pH 7.2)/0.1% Triton X-100/0.1 mg/ml RNase/0.01% sodium azide for 15 minutes and subsequently mixed with 50 g/ml of propidium iodide (Sigma,St.Louis, Mo.) for 5 minutes. The isolated nuclei were analyzed with flow cytometer (FACScan:Becton Dickinson, Mountain view, Calif.). The efficacy of a drug was judged by shifting the nucleus of apoptosis to a low diploid (sub-G1) region and comparing reverse decrease of the peak of the thus incorporated diploid with decrease of untreated control cells. […] Decomposition and condensation of chromatin were judged as a marker of apoptosis and quantitatively evaluated by Fisher's exact test.

SMILES	efficacy of drug in drug sensitivity test [1]	efficacy of drug in drug sensitivity test [2]	efficacy of drug in drug sensitivity test (FIG. 5, example C, tumor located slightly away from normal brain tissue in phylogenetic tree)	drug sensitivity of tumors having sensitivity to ACNU (tumors having sensitivity to ACNU)
Cc1ncc(CNC(=O)N(CCCl)N=O)c(N)n1 [ACNU, nimustine]	effective	effective		
O=P1(N(CCCl)CCCl)NC(OO)CCO1 (stereo not shown) [CPM]	effective	effective		
CC(=O)O[C@H]1C(=O)[C@@]2(C)[C@H]([C@H](OC(=O)c3ccccc3)[C@]3(O)C[C@H](OC(=O)[C@H](O)[C@@H](NC(=O)c4ccccc4)c4ccccc4)C(C)=C1C3(C)C)[C@]1(OC(C)=O)CO[C@@H]1C[C@@H]2O [TAX, paclitaxel]		effective		
CC[C@]1(O)C[C@H]2CN(CCc3c([nH]c4ccccc34)[C@@](C(=O)OC)(c3cc4c(cc3OC)N(C=O)[C@H]3[C@@](O)(C(=O)OC)[C@H](OC(C)=O)[C@]5(CC)C=CCN6CC[C@]43[C@@H]65)C2)C1 [VCR, vincristine]			effective	generally resistant
